The record followed here is patent US6812251B2, “Taurine compounds” (priority 2001, dated 2004).

For data set [1], the system named is PA1 human ovarian tumor cells. Briefly: Tumor cell growth inhibition, PA1 cells (cell counting). The format is cell-based. Conditions: PA-1, 5-100 μM, 3 d (72 h) exposure, electronic cell counting, mean ± SE, read-out: IC50 (concentration required to inhibit cell number by 50%).
A short description of data set [2]: Growth inhibition of a panel of cell lines by taurolidine. The format is cell-based. To be noted: range over all cell lines evaluated; read-out: IC50s, growth inhibition.
Data set [3] deals with DU-145 human prostate tumor cells. The data set is described as follows: Flow cytometry (propidium iodide) apoptosis, sub-G0/G1 peak. The format is cell-based. To be noted: DU-145 cells, 50 μM, 24 h.
A short description of another data set: Stability in solution. The format is physicochemical. An excerpt: The prolonged stability is an advantage over taurolidine.

For the molecule `O=S1(=O)CCN(CN2CCS(=O)(=O)NC2)CN1` [Taurolidine, Bis-(1,1-dioxoperhydro-1,2,4-thiadiazinyl-4)methane], the IC50 is 11.4 ± 1.8 µM in data set [1] and 9.6 to 45 µM in data set [2]. Besides, in data set [3], the “% apoptosis (sub-G0/G1 peak area)” value is reported as 12.27%. The stability in solution entry in the data set “Stability in solution” was “very unstable in solution and spontaneously decomposes”.
